Assays:
[1] = target: T1, progesterone receptors of rabbit uterus (Oryctolagus cuniculus, UniProt P06186); assay: Relative binding affinity (ARL), progesterone receptors of rabbit uterus; conditions: rabbit uterus cytosol, tritiated 17,21-dimethyl-19-nor-Δ4,9-pregnadiene-3,20-dione, cold reference hormone progesterone; for relative affinity of the bond (ARL), Progestogen, 2H: incubation 2H at 0° C.; for relative affinity of the bond (ARL), Progestogen, 24H: incubation 24H at 0° C.
T1 construct: The first test was on the progesterone receptors of rabbit uterus; from tissue; host or cells: uterus of estradiol-treated immature rabbits, 105,000 g supernatant (cytosol)
T1 sequence (P06186 1-930): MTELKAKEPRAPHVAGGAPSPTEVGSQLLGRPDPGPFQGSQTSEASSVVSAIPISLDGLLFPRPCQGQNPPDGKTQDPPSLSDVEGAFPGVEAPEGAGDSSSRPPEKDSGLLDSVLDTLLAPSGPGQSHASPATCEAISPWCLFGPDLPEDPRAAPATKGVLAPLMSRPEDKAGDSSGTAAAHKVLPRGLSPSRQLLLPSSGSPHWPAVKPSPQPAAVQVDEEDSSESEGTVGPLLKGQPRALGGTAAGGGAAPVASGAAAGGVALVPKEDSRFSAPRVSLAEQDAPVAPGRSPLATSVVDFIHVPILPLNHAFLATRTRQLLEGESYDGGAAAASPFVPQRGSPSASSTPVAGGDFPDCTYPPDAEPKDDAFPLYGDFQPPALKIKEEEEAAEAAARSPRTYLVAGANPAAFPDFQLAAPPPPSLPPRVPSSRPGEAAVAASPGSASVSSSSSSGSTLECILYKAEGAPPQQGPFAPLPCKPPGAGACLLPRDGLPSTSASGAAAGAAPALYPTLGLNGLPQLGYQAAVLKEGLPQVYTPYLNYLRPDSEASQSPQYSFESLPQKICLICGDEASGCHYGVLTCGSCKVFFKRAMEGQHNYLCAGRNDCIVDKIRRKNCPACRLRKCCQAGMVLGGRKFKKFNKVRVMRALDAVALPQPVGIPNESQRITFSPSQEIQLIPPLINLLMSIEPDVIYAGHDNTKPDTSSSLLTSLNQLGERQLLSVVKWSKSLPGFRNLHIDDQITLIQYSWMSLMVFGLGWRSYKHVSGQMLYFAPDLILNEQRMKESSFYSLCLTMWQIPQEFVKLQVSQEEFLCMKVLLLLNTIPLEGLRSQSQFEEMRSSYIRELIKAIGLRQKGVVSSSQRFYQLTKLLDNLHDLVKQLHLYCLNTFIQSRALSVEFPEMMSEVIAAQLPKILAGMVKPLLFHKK
Procedure: The first test was on the progesterone receptors of rabbit uterus in which immature rabbits weighing about 1 kg received a cutaneous application of […] of estradiol and 5 days after treatment, the animals were sacrificed. The […] was removed, weighed and homogenized at 0° C. with a Potter Teflon-glass ina buffered solution. TS (Tris 10 mM, 0.25M Saccharose, HCl, pH 7.4) (1 g of tissue per 50 ml of TS). The homogenate was ultracentrifuged at 105,000 g×90 minutes at 0° C. The surnageant samples were incubated at a time at (t) 0° C. with a constant concentration (T) of tritiated product (R) which is 17,21-dimethyl-19-nor-Δ^4,9 -pregnadiene-3,20-dione in the presence of increasing concentrations from 0 to 2500×10^-9 M or cold R or cold progestenone or cold test compound. The concentration of bound tritiated R was measured for each incubate by absorption technique on dextran carbon.
(§1) The relative affinity of the bond (ARL) was calculated in the same for the receptors. One traced the following 2 curves: the percentage of bond tritiated hormone B/T as a logarithmic function of the concentration of the cold reference hormone and B/T as a logarithmic function of the concentration of the cold test compound. Using the equation [formula] B/T max.=% of bound tritiated hormone for one incubation of tritiated hormone at concentration (T)
(§2) B/T min.=% of bound tritiated hormone for one incubation of tritiated hormone at a concentration T in the presence of a great excess of cold hormone (2500×10^-9 M).
(§3) The intersections of I50 lines and the curves permit an evaluation of the hormone concentration of the cold reference (CH) and the cold test compound (CX) which inhibited by 50% the bounding of tritiated hormone to the receptor. The ARL of the test compound was determined by the equation. [formula] and the following results were obtained.

[2] = target: T2, glucocorticoid receptor, rat thymus (Rattus norvegicus, UniProt P06536); assay: Relative binding affinity (ARL), glucocorticoid receptor of rat thymus; conditions: rat thymus cytosol, tritiated dexamethasone, cold reference dexamethasone; for relative affinity of the bond (ARL), Glucocorticoid, 2H: incubation 2H at 0° C.; for relative affinity of the bond (ARL), Glucocorticoid, 24H: incubation 24H at 0° C.
T2 construct: The second test was a glucocrticoid receptor test on rat thymus; from tissue; host or cells: thymus of adrenalectomized male Sprague Dawley EOPS rats, 105,000 g supernatant (cytosol)
T2 sequence (P06536 1-795): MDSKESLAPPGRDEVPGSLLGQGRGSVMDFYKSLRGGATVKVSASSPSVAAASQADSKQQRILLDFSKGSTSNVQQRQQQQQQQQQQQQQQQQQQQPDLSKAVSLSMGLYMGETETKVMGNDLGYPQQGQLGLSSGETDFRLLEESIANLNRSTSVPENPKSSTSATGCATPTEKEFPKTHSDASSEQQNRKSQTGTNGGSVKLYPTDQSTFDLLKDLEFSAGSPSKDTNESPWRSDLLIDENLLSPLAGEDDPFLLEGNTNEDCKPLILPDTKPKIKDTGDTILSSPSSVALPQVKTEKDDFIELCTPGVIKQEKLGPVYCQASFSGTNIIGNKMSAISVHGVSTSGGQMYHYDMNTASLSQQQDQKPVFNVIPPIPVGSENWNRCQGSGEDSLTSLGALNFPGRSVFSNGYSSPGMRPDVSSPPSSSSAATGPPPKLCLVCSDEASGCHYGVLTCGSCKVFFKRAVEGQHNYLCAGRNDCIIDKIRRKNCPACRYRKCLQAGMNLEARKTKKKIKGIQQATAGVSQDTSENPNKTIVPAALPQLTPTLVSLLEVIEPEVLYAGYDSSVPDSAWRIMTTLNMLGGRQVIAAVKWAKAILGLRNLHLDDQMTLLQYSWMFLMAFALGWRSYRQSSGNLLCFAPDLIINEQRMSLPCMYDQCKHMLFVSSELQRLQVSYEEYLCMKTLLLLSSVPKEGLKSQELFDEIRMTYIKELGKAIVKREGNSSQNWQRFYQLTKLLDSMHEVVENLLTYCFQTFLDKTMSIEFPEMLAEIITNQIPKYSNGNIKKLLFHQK
Procedure: The second test was a glucocrticoid receptor test on rat thymus in which male rats of the Sprague Dawley EOPS strain weighing 160 to 200 g were surrenalectomized. 4 to 8 days after this ablation, the animals were killed and the thymus was removed and homogenized at 0° C. in a buffered TS solution. (Tris 10 mM, 0.25M saccharose, 2 mM dithiothreitol, HCl pH 7.4) with a Potter tetrafluoroethylene-glass (1 g of tissue per 10 ml/TS). The homogenate was ultracentrifuged at 105,000 for 90 minutes at 0° C. and the surnageant samples were incubated at 0° C. for a time t with a constant concentration T of tritiated dexamethasone in the presence of increasing concentrations (0-2500×10^-9 M) or cold dexamethasone or cold test compound. The concentration B of bound tritiated dexamethasone was measured for each incubate by carbon-dextran absorption technique.
as §1, §2, §3

SMILES | relative affinity of the bond (ARL), Progestogen, 2H [1] | relative affinity of the bond (ARL), Progestogen, 24H [1] | relative affinity of the bond (ARL), Glucocorticoid, 2H [2] | relative affinity of the bond (ARL), Glucocorticoid, 24H [2]
COc1cccc([C@]2(O)CC[C@H]3[C@@H]4CCC5=CC(=O)CCC5=C4[C@@H](c4ccc(N(C)C)cc4)C[C@@]32C)c1 [Example 12 (Product A), 11β-(4-dimethylamino-phenyl)-17α-(3-methoxy-phenyl)-Δ^4,9-estradiene-17β-ol-3-one] | 24 | 131 | 90 | 76
CN(C)c1ccc([C@H]2C[C@@]3(C)[C@@H](CC[C@@]3(O)c3ccccc3O)[C@@H]3CCC4=CC(=O)CCC4=C32)cc1 [Example 10, 11β-(4-dimethylamino-phenyl)-17α-(2-hydroxy-phenyl)-Δ^4,9-estradiene-17β-ol-3-one] | 47 | 189 | 106 | 112
CSc1ccc([C@H]2C[C@@]3(C)[C@@H](CC[C@@]3(O)c3ccc(N(C)C)cc3)[C@@H]3CCC4=CC(=O)CCC4=C32)cc1 [Example 7, 11β-(4-methylthio-phenyl)-17α-(4-dimethylamino-phenyl)-Δ^4,9-estraidene-17β-ol-3-one] | 32 | 150 | 71 | 57
CN(C)c1ccc([C@H]2C[C@@]3(C)[C@@H](CC[C@@]3(O)c3ccc(O)cc3)[C@@H]3CCC4=CC(=O)CCC4=C32)cc1 [Example 6, 11β-(4-dimethylamino-phenyl)-17α-(4-hydroxy-phenyl)-Δ^4,9-estradiene-17β-ol-3-one] | 33 | 35 | 133 | 97
Cc1ccc([C@]2(O)CC[C@H]3[C@@H]4CCC5=CC(=O)CCC5=C4[C@@H](c4ccc(N(C)C)cc4)C[C@@]32C)cc1 [Example 9, 11β-(4-dimethylamino-phenyl)-17α-(4-methyl-phenyl)-Δ^4,9-estradiene-17β-ol-3-one] | 22 | 110 | 39 | 40
COc1ccc([C@H]2C[C@@]3(C)[C@@H](CC[C@@]3(O)c3ccc(OC)cc3)[C@@H]3CCC4=CC(=O)CCC4=C32)cc1 [Example 1, 11β,17α-bis-(4-methoxy-phenyl)-Δ^4,9-estradiene-17β-ol-3-one] | 48 | 259 | 94 | 68
COc1ccccc1[C@@]1(O)CC[C@H]2[C@@H]3CCC4=CC(=O)CCC4=C3[C@@H](c3ccc(N(C)C)cc3)C[C@@]21C [Example 11 (Product B), 11β-(4-dimethylamino-phenyl)-17β-(2-methoxy-phenyl)-Δ^4,9-estradiene-17α-ol-3-one] | 12 | 49 | 47 | 40
CN(C)c1ccc([C@H]2C[C@@]3(C)[C@@H](CC[C@@]3(O)c3ccccc3)[C@@H]3CCc4cc(O)ccc4[C@H]32)cc1 [Example 14, 11β-(4-dimethylamino-phenyl)-17α-phenyl-Δ^1,3,5(10) -estratriene-3,17β-diol] | 5 | 67 | 98 | 129
